In brackets after ≈: the same amount, converted by molar mass. Like-named read-outs stand apart in the source and are kept apart here.
Tests used:
[1] = test system: Meth-R. S. aureus; assay: relative antibacterial potency, disc diffusion test (Bauer et al.); assay type: cell-based; details: ratio to thienamycin (=1.0); larger value = higher activity
Protocol: The compounds of the present invention show strong antibacterial activities against various gram positive bacteria and gram negative bacteria. As representative examples, the antibacterial activities of the compounds of the present invention described in the Examples, were measured by a disc diffusion test by the method of Bauer et al. (Amer. J. Clin. Pathol., vol. 45, p. 493 (1966)). Thienamycin or imipenem was used as the internal standard.
MIC of each test compound was calculated from the diameter of the inhibition ring formed by the disc containing the test compound by using the calculation formula reported by Humphrey and Lightbown (J. Gen. Microbiol., vol. 7, p. 129 (1952)). For each microorganism, a geometrical average of MIC was obtained, and the activity ratio to thienamycin was calculated.
The antibacterial activities are represented by the ratio to thienamycin (=1.0), whereby the larger the numerical value, the higher the activities.

[2] = test system: S. aureus 209P NIHJ JC1; assay: in vitro antibacterial activity, agar plate dilution method (MIC); assay type: cell-based; details: Staphylococcus aureus, 10^6 CFU/ml, 37° C., 16 hours
Protocol: (§1) One platinum loopful of each test microorganism incubated overnight in Mueller Hinton broth, was inoculated to Mueller Hinton agara (inoculum size: 10^6 CFU/ml). Such culture media contained antibacterial agents in various concentrations. After incubation at 37° C. for 16 hours, the minimum inhibitory concentrations (MIC: μg/ml) were measured.

[3] = test system: S. aureus MB4970; assay: as above; assay type: cell-based; details: Staphylococcus aureus, 10^6 CFU/ml, 37° C., 16 hours
Protocol: as §1

[4] = test system: S. aureus JS1; assay: as above; assay type: cell-based; details: Staphylococcus aureus; 10^6 CFU/ml; 37° C., 16 hours; S. aureus JS1, lactamase producing microorganism
Protocol: as §1

[5] = test system: β-lactamase; details: in words; cited from earlier work
[6] = in words; background art; cited from earlier work
[7] = test system: renal dehydropeptidase I; details: cited from earlier work
[8] = test system: imipenem resistant Pseudomonas aeruginosa; details: in words; clinical field; cited from earlier work
[9] = test system: DHP-I; assay: DHP-I susceptibility (method by Kropp et al.); details: ratio to imipenem (=1.0); smaller value = higher stability
Description: (§2) The DHP-I susceptibility was quantitatively analyzed by the method by Kropp et al., Antimicrob.,- Agents Chemother., vol. 22, p. 62-70 (1982), whereby the smaller the numerical value representing the ratio to imipenem (=1.0), the higher the stability.

[10] = test system: gram positive bacteria and gram negative bacteria; details: in words, cited from earlier work
[11] = test system: kidney; details: in words; due to the decomposition products; cited from earlier work
[12] = test system: highly methicillin resistant Staphylococcus aureus; details: in words; clinical field; cited from earlier work
[13] = test system: methicillin resistant Staphylococcus aureus; details: in words; background art; cited from earlier work
[14] = test system: DHP-I
Description: as §2

[15] = in words; cited from earlier work

C[C@@H](O)[C@H]1C(=O)N2C(C(=O)O)=C(S[C@@H]3CN[C@H](C4CC4C(N)=O)C3)[C@H](C)[C@H]12 (single isomer, unassigned) [Example 6]
Relative antibacterial potency, Meth-R. S. aureus [1]: 5.41
MIC [2]: 0.025 µg/mL (≈ 0.0632 µM)
MIC [3]: 0.05 µg/mL (≈ 0.126 µM)
MIC [4]: 0.78 µg/mL (≈ 1.97 µM)

C[C@@H](O)[C@H]1C(=O)N2C(C(=O)O)=C(SCCN=CN)C[C@H]12 [imipenem]
β-lactamase resistance [5]: has β-lactamase resistance
chemical stability [6]: remarkably improved over thienamycin
Relative antibacterial potency, Meth-R. S. aureus [1]: 2.57
decomposition by / stability against DHP-I ([7]; in words, background art): likely to be decomposed by DHP-I in the human kidney
treating effects against imipenem resistant Pseudomonas aeruginosa [8]: does not show adequate treating effects
DHP-I susceptibility [9]: 1.0
antibacterial activities relative to thienamycin ([10]; various types of bacteria): equal or higher level than thienamycin
toxicity against the kidney [11]: presents toxicity against the kidney due to the decomposition products
treating effects against imipenem-resistant highly methicillin resistant Staphylococcus aureus [12]: does not show adequate treating effects

C[C@@H](O)[C@H]1C(=O)N2C(C(=O)O)=C(S[C@@H]3CN[C@H](C(=O)N(C)C)C3)[C@H](C)[C@H]12 [meropenem]
Relative antibacterial potency, Meth-R. S. aureus [1]: 3.15
decomposition by / stability against DHP-I [7]: stability against DHP-I substantially improved
antibacterial activities against highly methicillin resistant Staphylococcus aureus [13]: not adequate
DHP-I susceptibility [14]: 0.12

C[C@@H](O)[C@H]1C(=O)N2C(C(=O)O)=C(SCCN)C[C@H]12 [thienamycin]
chemical stability [6]: chemically unstable
decomposition by / stability against DHP-I ([7]; in words, background art): likely to be decomposed by a certain enzyme in vivo such as renal dehydropeptidase I
recovery rate in the urine [15]: low
antibacterial activities ([10]; gram positive and gram negative bacteria): strong antibacterial activities over a wide range against gram positive bacteria and gram negative bacteria

Reference: patent publication US5112818A, “2-(2-cyclopropylpyrrolidin-4-ylthio)carbapenhem derivatives” (Banyu Pharmaceutical Co., Ltd., priority 1989, dated 1992)
